Results taken from PMC10739246 (ACS Bio & Med Chem Au, 2023).
Converted amounts (≈) assume the structure as drawn. Like-named read-outs stand apart in the source and are kept apart here.

Experiments:
S. aureus (CCUG1800T) = assay: MIC, microdilution, S. aureus CCUG1800T; assay type: cell-based, Staphylococcus aureus
[1] = test system: S. aureus (ATCC 43300) MRSA; assay: MIC, microdilution, MRSA ATCC 43300; assay type: cell-based, Staphylococcus aureus; conditions: for MIC: norfloxacin-resistant strain
E. faecalis (ATCC 19433) = assay: MIC, E. faecalis ATCC 19433; assay type: cell-based, Enterococcus faecalis
P. aeruginosa (PAO1) = assay: MIC, microdilution, P. aeruginosa PAO1; assay type: cell-based, Pseudomonas aeruginosa
E. coli (W3110) = assay: MIC, microdilution, E. coli W3110; assay type: cell-based, Escherichia coli
[2] = test system: norfloxacin-resistant clinical isolate of E. coli; assay: MIC, microdilution, norfloxacin-resistant clinical isolate of E. coli; assay type: cell-based, Escherichia coli; conditions: read-out: MIC E. coli (norfloxacin-resistant strain)
[3] = test system: M. tuberculosis (MC26020); assay: microbe, parasite or virus in culture; assay type: cell-based, Mycobacterium tuberculosis; conditions: for MIC: Mycobacterium tuberculosis, read-out: MIC M. tuberculosis (MC26020)
[4] = test system: K. pneumoniae (ATCC 10031); assay: MIC, K. pneumoniae ATCC 10031; assay type: cell-based, Klebsiella pneumoniae
E. coli [5] = test system: E. coli
E. coli [6] = assay: microbe, parasite or virus in culture; conditions: Escherichia coli, read-out: MICC (MIC of the test compound alone)
B. subtilis DSM402 [7] = conditions: Table 2; cells treated with 1x MIC
MreB in B. subtilis MW10 = assay: MreB mobility assay; assay type: cell-based, Bacillus subtilis; conditions: B. subtilis MW10, 1 h of antibiotic exposure
Experimental: MreB is an actin homologue that forms filamentous structures along the lateral axis of the cell. It moves along the length of the cells in a spiraling pattern thereby driving lateral peptidoglycan synthesis.[36],[37] MreB mobility is sensitive to inhibition of peptidoglycan synthesis and so far, every cell wall synthesis inhibitor we tested abolished MreB movement (see Figure S70 for examples).
Expression of msfGFP-MreB was induced with 0.3% xylose. Pictures were taken after 1 h of antibiotic exposure. Two images of the same field of view were recorded 30 s apart and overlaid in ImageJ to visualize MreB mobility. A perfect overlap (yellow) indicates stalled MreB movement, while distinct red and green foci are indicative of MreB mobility. Scale bar 2 μm.
Fig. S70: MreB motility in B. subtilis MW10 after treatment with different cell wall synthesis inhibitors. Expression of GFP-MreB was induced with 0.3% xylose. Cells were treated with 1x […]
Two images of the same field of view were recorded 30 sec apart and overlaid in ImageJ to visualize MreB mobility. A perfect overlap (yellow) indicates stalled MreB movement while distinct red and green spots are indicative of MreB mobility. Scale bar 2 µm.

[8] = test system: cell wall biosynthesis in B. subtilis DSM402; assay: Summary of cell wall synthesis experiments; assay type: cell-based, Bacillus subtilis
[9] = test system: MurG in B. subtilis TNVS175; assay: MurG localization; assay type: cell-based, Bacillus subtilis; conditions: 1x MIC; 30 min (vancomycin) or 1 h;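 also: normal MurG forms small membrane spots and peptidoglycan inhibition gives large clusters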
B. subtilis DSM402 [10] = assay: Peptidoglycan integrity assay (acetic acid/methanol fixation); conditions: 1x MIC; 30 min (cell wall inhibitors) or 60 min
B. subtilis DSM402 [11] = assay: Bacterial cytological profiling (BCP) in B. subtilis DSM402; assay type: cell-based, Bacillus subtilis
[12] = Enterococcus faecalis, ATCC19433
[13] = Escherichia coli, Gram-negative strain, average of duplicate experiments, read-out: MIC E. coli (W3110)
[14] = Klebsiella pneumoniae, ATCC10031
[15] = read-out: MIC S. aureus (CCUG1800T)
[16] = Gram-negative strain, average of duplicate experiments, read-out: MIC E. coli (W3110)
[17] = norfloxacin-resistant clinical isolate
[18] = interpretation of BCP in B. subtilis

**Q.** What does the source list for `CCn1cc(C(=O)O)c(=O)c2cc(F)c(N3CCN(C(=O)CNc4ccc(Br)cc4)CC3)cc21` [4b]?
**A.** MIC (S. aureus (CCUG1800T); Staphylococcus aureus; Tab. S10, DNA gyrase side; strain not given, values equal S. aureus CCUG1800T of Table 1; read-out: MIC): 1.88 µM (≈ 0.999 µg/mL); MIC (S. aureus (CCUG1800T); Staphylococcus aureus; read-out: MIC S. aureus (CCUG1800T)): 1.88 µM (≈ 0.999 µg/mL); MIC ([1]; Staphylococcus aureus): > 964 µM; MIC (E. faecalis (ATCC 19433); [12]): 7.52 µM (≈ 4 µg/mL); MIC (P. aeruginosa (PAO1); Pseudomonas aeruginosa, PAO1): 723 µM (≈ 384 µg/mL); MIC (E. coli (W3110); [13]): 30.1 µM (≈ 16 µg/mL); MIC ([2]; Escherichia coli): > 964 µM; MIC [3]: 3.76 µM (≈ 2 µg/mL); MIC [4, 14]: > 964 µM

**Q.** `CCn1cc(C(=O)O)c(=O)c2cc(F)c(N3CCN(C(=O)Cn4ccnc4)CC3)cc21` [8a] was tested. Which MIC (S. aureus (CCUG1800T); Staphylococcus aureus, read-out: MIC S. aureus (CCUG1800T)) did it give?
**A.** 2.33 µM (≈ 0.996 µg/mL)

**Q.** What about the MIC ([1]; Staphylococcus aureus) of the same compound?
**A.** 299 µM (≈ 128 µg/mL)

**Q.** And the MIC (E. faecalis (ATCC 19433); [12])?
**A.** 14 µM (≈ 6 µg/mL)

**Q.** What about the MIC (P. aeruginosa (PAO1); Pseudomonas aeruginosa, PAO1) of the same compound?
**A.** 150 µM (≈ 64 µg/mL)

**Q.** And the MIC (E. coli (W3110); [13])?
**A.** 4.67 µM (≈ 2 µg/mL)

**Q.** And the MIC (E. coli (W3110); Escherichia coli, Tab. S10, topoisomerase IV side, strain not given, values equal E. coli W3110 of Table 1, read-out: MIC)?
**A.** 4.67 µM (≈ 2 µg/mL)

**Q.** What about the MIC ([2]; Escherichia coli) of the same compound?
**A.** 74.9 µM (≈ 32 µg/mL)

**Q.** And the MIC [3]?
**A.** 2.33 µM (≈ 0.996 µg/mL)

**Q.** What about the MIC [4, 14] of the same compound?
**A.** 9.35 µM (≈ 4 µg/mL)

**Q.** `CCn1cc(C(=O)O)c(=O)c2cc(F)c(N3CCN(CN4C(=O)C(=O)c5cc(C)ccc54)CC3)cc21` [20b] was tested. Which MIC (S. aureus (CCUG1800T); [15]) did it give?
**A.** 32.48 µM (≈ 16 µg/mL)

**Q.** And the MIC [1]?
**A.** 259.89 µM (≈ 128 µg/mL)

**Q.** And the MIC (E. faecalis (ATCC 19433))?
**A.** 6.09 µM (≈ 3 µg/mL)

**Q.** What about the MIC (P. aeruginosa (PAO1)) of the same compound?
**A.** 16.24 µM (≈ 8 µg/mL)

**Q.** What about the MIC (E. coli (W3110); [16]) of the same compound?
**A.** 5.07 µM (≈ 2.5 µg/mL)

**Q.** And the MIC [2, 17]?
**A.** >1039.59 µM

**Q.** What about the “MIC M. tuberculosis (MC26020)” value [3] of the same compound?
**A.** 129.94 µM (≈ 64 µg/mL)

**Q.** What about the MIC [4] of the same compound?
**A.** 3.04 µM (≈ 1.5 µg/mL)

**Q.** Which MIC (S. aureus (CCUG1800T); [15]) does the source give for `CCn1cc(C(=O)O)c(=O)c2cc(F)c(N3CCN(CN4C(=O)C(=O)c5cc(OC)ccc54)CC3)cc21` [20c] here?
**A.** 31.46 µM (≈ 16 µg/mL)

**Q.** What about the “fold more active than norfloxacin” value [1] of the same compound?
**A.** 6.3 fold

**Q.** And the MIC [1]?
**A.** 15.73 µM (≈ 8 µg/mL)

**Q.** And the MIC (E. faecalis (ATCC 19433))?
**A.** 251.72 µM (≈ 128 µg/mL)

**Q.** What about the MIC (P. aeruginosa (PAO1)) of the same compound?
**A.** 62.93 µM (≈ 32 µg/mL)

**Q.** What about the MIC (E. coli (W3110); [16]) of the same compound?
**A.** 4.91 µM (≈ 2.5 µg/mL)

**Q.** What about the MIC [2, 17] of the same compound?
**A.** 1006.88 µM (≈ 512 µg/mL)

**Q.** What about the “MIC M. tuberculosis (MC26020)” value [3] of the same compound?
**A.** >1006.88 µM

**Q.** And the MIC [4]?
**A.** 503.44 µM (≈ 256 µg/mL)

**Q.** Which “FICM (MICMcheckerboard/MICM)” value (E. coli [5]; mupirocin alone 64 µg/mL) does the source give for `CC(C)(N)[C@H](NC(=O)c1ccc(C#CC#C[C@@H]2C[C@H]2CO)cc1)C(=O)NO` [ACHN-975, reference compound] here?
**A.** 0.0469

**Q.** And the “FICI (fractional inhibitory concentration index)” value (E. coli [5]; with mupirocin, FICC+FICM)?
**A.** 0.2969

**Q.** What about the MIC (E. coli [6]) of the same compound?
**A.** 0.5 µg/mL

**Q.** `N[C@@H]1CON=C1O` [D-Cyc, D-cycloserine] was tested. Which “μM (concentration used, 1x MIC)” value (B. subtilis DSM402 [7]) did it give?
**A.** 293.85 µM

**Q.** What about the MreB mobility (MreB in B. subtilis MW10) of the same compound?
**A.** static with foci

**Q.** And the “CWB inhibited?” value [8]?
**A.** yes

**Q.** What about the “protein localization MurG” value [9] of the same compound?
**A.** patchy

**Q.** What about the PG integrity (B. subtilis DSM402 [10]) of the same compound?
**A.** compromised

**Q.** Which results are given for `CCCCCCCCCC(=O)N[C@@H](Cc1c[nH]c2ccccc12)C(=O)N[C@H](CC(N)=O)C(=O)N[C@@H](CC(=O)O)C(=O)N[C@@H]1C(=O)NCC(=O)N[C@@H](CCCN)C(=O)N[C@@H](CC(=O)O)C(=O)N[C@H](C)C(=O)N[C@@H](CC(=O)O)C(=O)NCC(=O)N[C@H](CO)C(=O)N[C@@H]([C@H](C)CC(=O)O)C(=O)N[C@@H](CC(=O)c2ccccc2N)C(=O)O[C@@H]1C` [Dap, daptomycin, reference compound]?
**A.** DAPI (B. subtilis DSM402 [11]; 1x MIC, 1 h, DNA condensation): regular; phase contrast (B. subtilis DSM402 [11]; 1x MIC, 1 h, indicates cell lysis): dark; FM4-64 (B. subtilis DSM402 [11]; 1x MIC, 1 h, membrane stain): patchy; gyrase inhibition (B. subtilis DSM402 [11]; [18]): no; membrane damage (B. subtilis DSM402 [11]; [18]): yes
